In patent US20240150342A1, “ESTROGEN-RELATED RECEPTOR ALPHA MODULATORS” (LEAD PHARMA HOLDING B.V., priority 2019, published 2024):

Biological target: T1, ERRα ligand binding domain (ERRα-LBD) (Homo sapiens, UniProt P11474)
T1 construct: made in house; host or cells: E. coli
T1 sequence (P11474 193-421 limits assumed): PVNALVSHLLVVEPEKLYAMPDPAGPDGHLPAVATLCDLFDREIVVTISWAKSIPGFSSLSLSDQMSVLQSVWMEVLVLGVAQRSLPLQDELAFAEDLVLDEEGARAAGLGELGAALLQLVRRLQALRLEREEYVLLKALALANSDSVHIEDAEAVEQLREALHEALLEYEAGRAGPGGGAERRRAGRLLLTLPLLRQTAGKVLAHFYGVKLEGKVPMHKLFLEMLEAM
Test: ERRα AlphaScreen Assay
Format: biochemical
Settings: disruption of binding of ERRα-LBD protein to biotin-PGC1α-3 co-activator peptide; read-out: mean pIC50 (converted)
Excerpt: This assay was based on the knowledge that nuclear receptors interact with cofactors in a ligand dependent matter. The sites of interaction have been mapped to LXXLL motifs that are present in the co-activator sequences. Short peptide sequences that contain the LXXLL motif mimic the behavior of full length co-activators.
The ERRα AlphaScreen Assay described here relies on the interaction of the co-activator peptide with purified bacterial- expressed ERRα ligand binding domain (ERRα-LBD); upon ligand binding, the ERRα protein can undergo a conformational change resulting in a loss of co-activator binding.
Compounds of the present invention were tested for their ability to disrupt binding of ERRα-LBD protein to co-activator peptide using AlphaScreen® Technology (Perkin Elmer). ERRα-LBD protein was expressed in E. coli as a 6×His Small Ubiquitin-like Modifier (SUMO) fusion. Bacterial expressed 6His-SUMO-ERRα-LBD protein was purified using affinity chromatography. All experiments were performed at room temperature in 384-well white non-binding plates (Greiner) using 50 mM Tris-HCl pH 7.5, 100 mM NaCl, 0.1% Pluronic F-127, 0.05% BSA and 5 mM TCEP as the buffer. Final DMSO concentration was 1% in the assay. Compounds were assayed in triplicate and: incubated with 0.81 nM ERRα-LBD protein and 10 μg/mL streptavidin donor beads and 10 μg/mL Ni-chelate acceptor beads for 1 hour at room temperature; followed by a 2-hour incubation with 15 nM biotin-PGC1α-3 peptide (QRRPCSELLKYLTTNDDPP) corresponding to amino acids 202 to 220.
The AlphaScreen signal was measured using an Envision Xcite plate reader (Perkin Elmer). Data was normalized, and curve fitting analysis was performed in GraphPad Prism 7 using a four-parameter dose-response fit.

## COc1cc(C2CC(=O)Nc3n[nH]cc32)ccc1Oc1ccc(C#N)c2ccccc12 (stereo not shown) [Example 46, 4-(2-methoxy-4-{6-oxo-2H,4H,5H,6H,7H-pyrazolo[3,4-b]pyridin-4-yl}phenoxy)naphthalene-1-carbonitrile]
  IC50: 10 to 100 nM

## COc1cc(Oc2ccc(C3CC(=O)Nc4n[nH]cc43)cc2C)cc(C(F)(F)F)c1 (stereo not shown) [Example 56, 4-{4-[3-methoxy-5-(trifluoromethyl)phenoxy]-3-methylphenyl}-2H,4H,5H,6H,7H-pyrazolo[3,4-b]pyridin-6-one]
  IC50: 10 to 100 nM

## COc1cc(C2CC(=O)Nc3n[nH]cc32)ccc1Oc1cc(C)cc(C)c1 (single isomer, unassigned; (-)) [Example 82, (−)-4-[4-(3,5-dimethylphenoxy)-3-methoxyphenyl]-2H,4H,5H,6H,7H-pyrazolo[3,4-b]pyridin-6-one]
  IC50: 10 to 100 nM

## COc1cc(C2CC(=O)Nc3n[nH]cc32)ccc1Oc1cccc(C(C)C)c1 (stereo not shown) [Example 30, 4-{3-methoxy-4-[3-(propan-2-yl)phenoxy]phenyl}-2H,4H,5H,6H,7H-pyrazolo[3,4-b]pyridin-6-one]
  IC50: 10 to 100 nM

## COc1ccc(Oc2ccc(C3CC(=O)Nc4n[nH]cc43)cc2OC)c(C(C)(C)C)c1 (stereo not shown) [Example 27, 4-[4-(2-tert-butyl-4-methoxyphenoxy)-3-methoxyphenyl]-2H,4H,5H,6H,7H-pyrazolo[3,4-b]pyridin-6-one]
  IC50: ≤ 10 nM

## COc1cc(C2CC(=O)Nc3n[nH]cc32)ccc1Oc1ccc(C#N)cc1C(F)(F)F (stereo not shown) [Example 2, 4-(2-methoxy-4-{6-oxo-2H,4H,5H,6H,7H-pyrazolo[3,4-b]pyridin-4-yl}phenoxy)-3-(trifluoromethyl)benzonitrile]
  IC50: 100 to 1000 nM

## COC(=O)C1C(=O)Nc2n[nH]cc2C1c1ccc(Oc2cc(C(F)(F)F)cc(C(F)(F)F)c2)c(OC)c1 (stereo not shown) [Example 72, methyl 4-{4-[3,5-bis(trifluoromethyl)phenoxy]-3-methoxyphenyl}-6-oxo-2H,4H,5H,6H,7H-pyrazolo[3,4-b]pyridine-5-carboxylate]
  IC50: 100 to 1000 nM

## CCc1cccc(Oc2ccc(C3CC(=O)Nc4n[nH]cc43)cc2OC)c1 (stereo not shown) [Example 21, 4-[4-(3-ethylphenoxy)-3-methoxyphenyl]-2H,4H,5H,6H,7H-pyrazolo[3,4-b]pyridin-6-one]
  IC50: 100 to 1000 nM

## COc1cc(C2CC(=O)Nc3n[nH]cc32)ccc1Oc1ccccc1Br (stereo not shown) [Example 7, 4-[4-(2-bromophenoxy)-3-methoxyphenyl]-2H,4H,5H,6H,7H-pyrazolo[3,4-b]pyridin-6-one]
  IC50: 100 to 1000 nM

## COc1cc(C2CC(=O)Nc3n[nH]cc32)ccc1Oc1ccccc1C12CC(C1)C2 (stereo not shown) [Example 45, 4-[4-(2-{bicyclo[1.1.1]pentan-1-yl}phenoxy)-3-methoxyphenyl]-2H,4H,5H,6H,7H-pyrazolo[3,4-b]pyridin-6-one]
  IC50: 10 to 100 nM

## O=C1CC(c2ccc(Oc3ccccc3C(F)(F)F)c(OC(F)(F)F)c2)c2c[nH]nc2N1 (stereo not shown) [Example 60, 4-[3-(trifluoromethoxy)-4-[2-(trifluoromethyl)phenoxy]phenyl]-2H,4H,5H,6H,7H-pyrazolo[3,4-b]pyridin-6-one]
  IC50: 100 to 1000 nM

## COc1cc(C2CC(=O)Nc3c[nH]cc32)ccc1Oc1cc(C(F)(F)F)cc(C(F)(F)F)c1 (stereo not shown) [Example 76, 4-{4-[3,5-bis(trifluoromethyl)phenoxy]-3-methoxyphenyl},2H,3H,4H,6H-pyrrolo[3,4-b]pyridin-2-one]
  IC50: 10 to 100 nM

## COc1cc(C2CC(=O)Nc3n[nH]cc32)ccc1Oc1cccc2c1CCC2 (stereo not shown) [Example 47, 4-[4-(2,3-dihydro-1H-inden-4-yloxy)-3-methoxyphenyl]-2H,4H,5H,6H,7H-pyrazolo[3,4-b]pyridin-6-one]
  IC50: 10 to 100 nM

## COc1cc(C2CC(=O)Nc3n[nH]cc32)ccc1Oc1cccc(C2CC2)c1 (stereo not shown) [Example 31, 4-[4-(3-cyclopropylphenoxy)-3-methoxyphenyl]-2H,4H,5H,6H,7H-pyrazolo[3,4-b]pyridin-6-one]
  IC50: 10 to 100 nM

## COc1cc(C2CC(=O)Nc3n[nH]cc32)ccc1Oc1ccc(C(F)(F)F)cc1C(F)F (stereo not shown) [Example 78, 4-{4-[2-(difluoromethyl)-4-(trifluoromethyl)phenoxy]-3-methoxyphenyl}-2H,4H,5H,6H,7H-pyrazolo[3,4-b]pyridin-6-one]
  IC50: 10 to 100 nM

## COc1cc(C2CC(=O)Nc3n[nH]cc32)ccc1Oc1ccccc1OC(F)(F)F (stereo not shown) [Example 12, 4-{3-methoxy-4-[2-(trifluoromethoxy)phenoxy]phenyl}-2H,4H,5H,6H,7H-pyrazolo[3,4-b]pyridin-6-one]
  IC50: 10 to 100 nM

## COc1cc(C2CC(=O)Nc3n[nH]cc32)ccc1Oc1cccc2c1OC(C)(C)C2 (stereo not shown) [Example 48, 4-{4-[(2,2-dimethyl-2,3-dihydro-1-benzofuran-7-yl)oxy]-3-methoxyphenyl}-2H,4H,5H,6H,7H-pyrazolo[3,4-b]pyridin-6-one]
  IC50: 10 to 100 nM

## COc1cc(Oc2ccc(C3CC(=O)Nc4n[nH]cc43)cc2F)cc(C(F)(F)F)c1 (stereo not shown) [Example 57, 4-{3-fluoro-4-[3-methoxy-5-(trifluoromethyl)phenoxy]phenyl}-2H,4H,5H,6H,7H-pyrazolo[3,4-b]pyridin-6-one]
  IC50: 10 to 100 nM

## COc1cc(C2CC(=O)Nc3n[nH]cc32)ccc1Oc1cccc(OC(F)(F)F)c1 (stereo not shown) [Example 17, 4-{3-methoxy-4-[3-(trifluoromethoxy)phenoxy]phenyl}-2H,4H,5H,6H,7H-pyrazolo[3,4-b]pyridin-6-one]
  IC50: 100 to 1000 nM

## COc1cc(C2CC(=O)Nc3n[nH]cc32)ccc1Oc1ccc(C)cc1C (stereo not shown) [Example 66, 4-[4-(2,4-dimethylphenoxy)-3-methoxyphenyl]-2H,4H,5H,6H,7H-pyrazolo[3,4-b]pyridin-6-one]
  IC50: 100 to 1000 nM

## COc1cc(C2CC(=O)Nc3n[nH]cc32)ccc1Oc1ccc(C(=O)O)cc1C(C)(C)C (stereo not shown) [Example 61, 3-tert-butyl-4-(2-methoxy-4-{6-oxo-2H,4H,5H,6H,7H-pyrazolo[3,4-b]pyridin-4-yl}phenoxy)benzoic acid]
  IC50: 10 to 100 nM

## COc1cc(Oc2ccc(C3CC(=O)Nc4n[nH]cc43)cc2Br)cc(C(F)(F)F)c1 (stereo not shown) [Example 52, 4-{3-bromo-4-[3-methoxy-5-(trifluoromethyl)phenoxy]phenyl}-2H,4H,5H,6H,7H-pyrazolo[3,4-b]pyridin-6-one]
  IC50: 10 to 100 nM

## COc1cc(C2CC(=O)Nc3n[nH]cc32)ccc1Oc1ccccc1C(F)(F)F (stereo not shown) [Example 4, 4-{3-methoxy-4-[2-(trifluoromethyl)phenoxy]phenyl}-2H,4H,5H,6H,7H-pyrazolo[3,4-b]pyridin-6-one]
  IC50: 100 to 1000 nM

## COc1cc(C2CC(=O)Nc3n[nH]cc32)ccc1Oc1cc(C(C)(C)C)cc(C(C)(C)C)c1 (stereo not shown) [Example 44, 4-[4-(3,5-di-tert-butylphenoxy)-3-methoxyphenyl]-2H,4H,5H,6H,7H-pyrazolo[3,4-b]pyridin-6-one]
  IC50: 10 to 100 nM

## COc1cc(C2CC(=O)Nc3n[nH]cc32)ccc1Oc1cc(C(F)F)cc(C(F)(F)F)c1 (stereo not shown) [Example 77, 4-{4-[3-(difluoromethyl)-5-(trifluoromethyl)phenoxy]-3-methoxyphenyl}-2H,4H,5H,6H,7H-pyrazolo[3,4-b]pyridin-6-one]
  IC50: 10 to 100 nM

## COc1cc(C2CC(=O)Nc3n[nH]cc32)ccc1Oc1cc(C)cc(C)c1 (stereo not shown) [Example 64, 4-[4-(3,5-dimethylphenoxy)-3-methoxyphenyl]-2H,4H,5H,6H,7H-pyrazolo[3,4-b]pyridin-6-one]
  IC50: 10 to 100 nM

## COC(=O)c1ccc(Oc2ccc(C3CC(=O)Nc4n[nH]cc43)cc2OC)c2ccccc12 (stereo not shown) [Example 36, methyl 4-(2-methoxy-4-{6-oxo-2H,4H,5H,6H,7H-pyrazolo[3,4-b]pyridin-4-yl}phenoxy)naphthalene-1-carboxylate]
  IC50: ≤ 10 nM

## COc1cc(C2CC(=O)Nc3n[nH]cc32)ccc1Oc1cccc(Br)c1 (stereo not shown) [Example 14, 4-[4-(3-bromophenoxy)-3-methoxyphenyl]-2H,4H,5H,6H,7H-pyrazolo[3,4-b]pyridin-6-one]
  IC50: 100 to 1000 nM

## COc1cc(C2CC(=O)Nc3n[nH]cc32)ccc1Oc1ccccc1C(C)C (stereo not shown) [Example 23, 4-{3-methoxy-4-[2-(propan-2-yl)phenoxy]phenyl}-2H,4H,5H,6H,7H-pyrazolo[3,4-b]pyridin-6-one]
  IC50: 10 to 100 nM

## CC(C)(C)c1cc(C#N)ccc1Oc1ccc(C2CC(=O)Nc3n[nH]cc32)cc1 (stereo not shown) [Example 53, 3-tert-butyl-4-(4-{6-oxo-2H,4H,5H,6H,7H-pyrazolo[3,4-b]pyridin-4-yl}phenoxy)benzonitrile]
  IC50: 10 to 100 nM

## COc1cc(C2CC(=O)Nc3n[nH]cc32)ccc1Oc1ccc(C(F)(F)F)cc1 (stereo not shown) [Example 5, 4-{3-methoxy-4-[4-(trifluoromethyl)phenoxy]phenyl}-2H,4H,5H,6H,7H-pyrazolo[3,4-b]pyridin-6-one]
  IC50: 100 to 1000 nM
